Source: US4127714A, “Anthracycline glycosides” (priority 1976, dated 1978)
In brackets after ≈: the same amount, converted by molar mass. Counter-ions that a name gives are not always drawn.

Columns and labels:
animal tumor systems = details: reported in literature; cited from earlier work
mouse L1210 leukemia = assay: Prolongation of survival time of CDF1 mice inoculated intraperitoneally with L1210 leukemia cells; type: in vivo, mouse (CDF1); details: for inhibitory effects on mouse L1210 leukemia: summary statement in words
Description: Rhodirubin A and B show a marked antitumor activity with low toxicity in experimental animal tests and thus are therapeutically useful in inhibiting the growth of animal tumors. […] For example, CDF1 mice were inoculated intraperitoneally with 1 × 10^6 L1210 cells/mouse and 0.1-0.2 ml. of drug solution then administered intraperitoneally for 10 consecutive days. Observation was carried out for 30 days, and the % of prolongation of survival time to the control mice intraperitoneally administered with physiological saline was as follows: […]

B. cereus ATCC 9634 = assay: Minimum inhibitory concentration, broth dilution method; type: cell-based; details: Bacillus cereus, ATCC9634
gram-positive bacteria = assay: Antimicrobial activity (summary statement); type: cell-based; details: against gram-positive bacteria
[1] = Toxicity in experimental animal tests (summary statement); details: summary statement in words
Sarcina lutea ATCC 9341 = assay: Minimum inhibitory concentration, broth dilution method; type: cell-based; details: Micrococcus luteus, ATCC9341
mammalian tumor cells = assay: Cytotoxicity to mammalian tumor cells in culture
B. subtilis ATCC 6633 = assay: Minimum inhibitory concentration, broth dilution method; type: cell-based; details: Bacillus subtilis, ATCC6633
[2] = tested on: Candida tropicalis IAM 4942; assay: as above; type: cell-based; details: IAM4942
[3] = tested on: Mycobacterium smegmatis ATCC 607; assay: as above; type: cell-based; details: Mycolicibacterium smegmatis, ATCC607
[4] = tested on: Candida albicans IAM 4905; assay: as above; type: cell-based; details: IAM4905
B. megaterium NRRL-938 = assay: as above; type: cell-based; details: Priestia megaterium, NRRL938
in vivo = details: mouse, ip, mice, intraperitoneal injection
Source text: The LD50 values upon intraperitoneal injection (in mice) of rhodirubin A and B are as follows: […]

[5] = tested on: solid and ascitic forms of malignant tumors in mammals, e.g. mouse leukemia L1210; assay: Inhibition of growth of solid and ascitic malignant tumors in mammals (summary statement); type: in vivo
Micrococcus flavus = assay: Minimum inhibitory concentration, broth dilution method; type: cell-based
[6] = tested on: Ps. fluorescens NIHJB-254; assay: as above; type: cell-based; details: Pseudomonas fluorescens, NIHJB254
Coryne: bovis = assay: Minimum inhibitory concentration, broth dilution method; type: cell-based
Staph. aureus Smith = assay: as above; type: cell-based; details: Staphylococcus aureus
Proteus morganii = assay: as above; type: cell-based; details: Morganella morganii
Staph. aureus FDA 209P = assay: as above; type: cell-based; details: Staphylococcus aureus, FDA209P
[7] = in methanol, n-butanol, acetone, ethyl acetate, chloroform, toluene, benzene and dimethylsulfoxide
[8] = in water, n-hexane and petroleum ether

CC(=O)[C@]1(O)Cc2c(O)c3c(c(O)c2[C@@H](O[C@H]2C[C@H](N)[C@H](O)[C@H](C)O2)C1)C(=O)c1c(O)cccc1C3=O [carminomycin]
activity against several animal tumor systems (animal tumor systems): active against several animal tumor systems

CCC1(O)CC(OC2CC(N(C)C)C(OC3CC(O)C(OC4CCC(O)C(C)O4)C(C)O3)C(C)O2)c2c(cc3c(c2O)C(=O)c2c(O)ccc(O)c2C3=O)C1C(=O)OC (centres unmarked) [rhodirubin A (HC1 salt)]
Prolongation of the survival time T/C (%) (mouse L1210 leukemia; ip, 0.6 mg/kg, 720 h): 102%
Prolongation of the survival time T/C (%) (mouse L1210 leukemia; ip, 1.25 mg/kg, 720 h): 117%
Prolongation of the survival time T/C (%) (mouse L1210 leukemia; ip, 2.5 mg/kg, 720 h): 167%
Prolongation of the survival time T/C (%) (mouse L1210 leukemia; ip, 5 mg/kg, 720 h): 195%
Prolongation of the survival time T/C (%) (mouse L1210 leukemia; ip, 8.5 mg/kg, 720 h): 121%
Prolongation of the survival time T/C (%) (mouse L1210 leukemia; ip, 10 mg/kg, 720 h): 87%

CCC1(O)CC(OC2CC(N(C)C)C(OC3CC(O)C(OC4CCC(O)C(C)O4)C(C)O3)C(C)O2)c2c(cc3c(c2O)C(=O)c2c(O)ccc(O)c2C3=O)C1C(=O)OC (centres unmarked) [rhodirubin A]
MIC (B. cereus ATCC 9634): 0.2 µg/mL (≈ 0.241 µM)
antimicrobial activity (gram-positive bacteria): possess antimicrobial activity, especially against gram-positive bacteria
antimicrobial activity (gram-positive bacteria; listed as Rhodirubin A): exhibit antimicrobial activity against gram-positive bacteria
toxicity [1]: low toxicity
MIC (Sarcina lutea ATCC 9341): 0.4 µg/mL (≈ 0.482 µM)
cytotoxicity (mammalian tumor cells): high cytotoxicity
MIC (B. subtilis ATCC 6633): 0.78 µg/mL (≈ 0.94 µM)
MIC [2]: > 100 µg/mL
MIC [3]: 6.25 µg/mL (≈ 7.53 µM)
MIC [4]: > 100 µg/mL
MIC (B. megaterium NRRL-938): 0.78 µg/mL (≈ 0.94 µM)
inhibitory effects on mouse L1210 leukemia (mouse L1210 leukemia): marked inhibitory effects
LD50 (in vivo): 7.5 to 10 mg/kg
inhibition of growth of malignant tumors [5]: inhibit the growth of solid and ascitic forms of malignant tumors in mammals
MIC (Micrococcus flavus): 0.2 µg/mL (≈ 0.241 µM)
MIC [6]: 100 µg/mL (≈ 120 µM)
Solubility (Solubility; in diethyl ether): slightly soluble
Solubility (Solubility; [7]): soluble
Solubility (Solubility; [8]): insoluble
MIC (Coryne: bovis): 0.2 µg/mL (≈ 0.241 µM)
MIC (Staph. aureus Smith): 0.4 µg/mL (≈ 0.482 µM)
MIC (Proteus morganii): > 100 µg/mL
MIC (Staph. aureus FDA 209P): 1.56 µg/mL (≈ 1.88 µM)

CCC1(O)CC(OC2CC(N(C)C)C(OC3CCC(OC4CCC(O)C(C)O4)C(C)O3)C(C)O2)c2c(cc3c(c2O)C(=O)c2c(O)ccc(O)c2C3=O)C1C(=O)OC (centres unmarked) [rhodirubin B (HC1 salt)]
Prolongation of the survival time T/C (%) (mouse L1210 leukemia; 0.6 mg./kg./day, i.p., 10 consecutive days, observed 30 days, vs physiological saline controls): 107%
Prolongation of the survival time T/C (%) (mouse L1210 leukemia; 1.25 mg./kg./day, i.p., 10 consecutive days, observed 30 days, vs physiological saline controls): 126%
Prolongation of the survival time T/C (%) (mouse L1210 leukemia; 2.5 mg./kg./day, i.p., 10 consecutive days, observed 30 days, vs physiological saline controls): 215%
Prolongation of the survival time T/C (%) (mouse L1210 leukemia; 5 mg./kg./day, i.p., 10 consecutive days, observed 30 days, vs physiological saline controls): 179%
Prolongation of the survival time T/C (%) (mouse L1210 leukemia; 8.5 mg./kg./day, i.p., 10 consecutive days, observed 30 days, vs physiological saline controls): 160%
Prolongation of the survival time T/C (%) (mouse L1210 leukemia; 10 mg./kg./day, i.p., 10 consecutive days, observed 30 days, vs physiological saline controls): 104%

CCC1(O)CC(OC2CC(N(C)C)C(OC3CCC(OC4CCC(O)C(C)O4)C(C)O3)C(C)O2)c2c(cc3c(c2O)C(=O)c2c(O)ccc(O)c2C3=O)C1C(=O)OC (centres unmarked) [rhodirubin B]
MIC (B. cereus ATCC 9634): 0.4 µg/mL (≈ 0.491 µM)
antimicrobial activity (gram-positive bacteria): possess antimicrobial activity, especially against gram-positive bacteria
antimicrobial activity (gram-positive bacteria; listed as Rhodirubin B): exhibit antimicrobial activity against gram-positive bacteria
toxicity [1]: low toxicity
MIC (Sarcina lutea ATCC 9341): 0.78 µg/mL (≈ 0.958 µM)
cytotoxicity (mammalian tumor cells): high cytotoxicity
MIC (B. subtilis ATCC 6633): 1.56 µg/mL (≈ 1.92 µM)
MIC [2]: > 100 µg/mL
MIC [3]: 3.1 µg/mL (≈ 3.81 µM)
MIC [4]: > 100 µg/mL
MIC (B. megaterium NRRL-938): 1.56 µg/mL (≈ 1.92 µM)
inhibitory effects on mouse L1210 leukemia (mouse L1210 leukemia): marked inhibitory effects
LD50 (in vivo): 10 to 12.5 mg/kg
inhibition of growth of malignant tumors [5]: inhibit the growth of solid and ascitic forms of malignant tumors in mammals
MIC (Micrococcus flavus): 0.2 µg/mL (≈ 0.246 µM)
MIC [6]: 100 µg/mL (≈ 123 µM)
Solubility (Solubility; in diethyl ether): slightly soluble
Solubility (Solubility; [7]): soluble
Solubility (Solubility; [8]): insoluble
MIC (Coryne: bovis): 0.4 µg/mL (≈ 0.491 µM)
MIC (Staph. aureus Smith): 0.78 µg/mL (≈ 0.958 µM)
MIC (Proteus morganii): > 100 µg/mL
MIC (Staph. aureus FDA 209P): 1.56 µg/mL (≈ 1.92 µM)
